Patent publication US5693642A, “Piperazine derivatives as 5-HT1A ligands” (John Wyeth & Brother Ltd., priority 1993, dated 1997)

Biological target: T1, 5-HT1A receptor (Rattus norvegicus, UniProt P19327)
T1 construct: rat hippocampal membrane homogenate; from tissue; host or cells: rat hippocampal membrane homogenate
T1 sequence (P19327 1-422): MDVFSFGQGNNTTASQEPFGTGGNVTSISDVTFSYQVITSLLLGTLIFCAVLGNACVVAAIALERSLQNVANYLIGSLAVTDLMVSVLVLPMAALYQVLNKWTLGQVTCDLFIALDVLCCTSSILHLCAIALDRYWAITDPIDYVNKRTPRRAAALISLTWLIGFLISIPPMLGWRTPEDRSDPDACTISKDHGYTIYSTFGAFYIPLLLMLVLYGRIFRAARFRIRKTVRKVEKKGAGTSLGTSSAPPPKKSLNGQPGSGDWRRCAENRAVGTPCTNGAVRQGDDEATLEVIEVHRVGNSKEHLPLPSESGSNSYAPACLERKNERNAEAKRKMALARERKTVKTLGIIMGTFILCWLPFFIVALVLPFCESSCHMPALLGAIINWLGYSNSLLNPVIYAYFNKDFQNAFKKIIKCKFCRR
Assay: 5-HT1A receptor binding activity in rat hippocampal membrane homogenate
Procedure: The compounds of the invention were tested for 5-HT1A receptor binding activity in rat hippocampal membrane homogenate by the method of B. S. Alexander and M. D. Wood, J Pharm Pharmacol, 1988, 40, 888-891.

SMILES	IC50 [nM]
COc1ccccc1N1CCN(CC[C@H](c2ccccn2)[C@@H](O)C2CCCCC2)CC1 (relative stereo) [Example 2b, R*,S*-1-(2-Methoxyphenyl)-4-[3-butan-(2-pyridinyl)-4-cyclohexyl)-4-ol]piperazine]	1.8
COc1ccccc1N1CCN(CCC(c2ccccn2)[S+]([O-])C2CCCCC2)CC1 (single isomer, unassigned) [Example 7, 1-(2-Methoxyphenyl)-4-[3-(cyclohexylsulphoxy)-3-(2-pyridinyl)propyl]piperazine]	15
COc1ccccc1N1CCN(C[C@H](c2ccccn2)[C@H](O)C2CCCCC2)CC1 (relative stereo) [Example 1a, R*, R*-1-(2Methoxyphenyl)-4-[(2-propan-(2-pyridinyl)-3-cyclohexyl)-3-ol]piperazine]	4
COc1ccccc1N1CCN(CC[C@H](c2ccccn2)[C@H](O)C2CCCCC2)CC1 (relative stereo) [Example 2a, R*,R*-1-(2-Methoxyphenyl)-4-[3-butan-(2-pyridinyl)-4-cyclohexyl)-4-ol]piperazine]	2
COc1ccccc1N1CCN(CCC(C(=O)C2CCCCC2)c2ccccn2)CC1 (centres unmarked) [Example 3]	2.6
COc1ccccc1N1CCN(C[C@H](c2ccccn2)[C@@H](O)C2CCCCC2)CC1 (relative stereo) [Example 1b, R*, S*-1-(2-Methoxyphenyl)-4-[(2-propan-(2-pyridinyl)-3-cyclohexyl)-3-ol]piperazine]	4.3
COc1ccccc1N1CCN(CCC(SC2CCCCC2)c2ccccn2)CC1 (centres unmarked) [Example 6, 1-(2-Methoxyphenyl)-4-[3-(cyclohexylthio)-3-(2-pyridinyl)propyl]piperazine]	4.25
COc1ccccc1N1CCN(CCC(CC2CCCCC2)c2ccccn2)CC1 (centres unmarked) [Example 4]	1.6
